From PubChem BioAssay (NCI)
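In this assay, cells in 96-well plates receive the compound at five concentrations for 48 hours. Endpoints are linearly interpolated between the surrounding concentrations. The concentration for 50% growth inhibition is given as GI50. TGI marks complete inhibition of growth.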

Tests used:
Experiment in all cases: inhibition of tumour cell growth, NCI panel, 48 h
786-0 renal = tested on: 786-0 renal
A498 renal = tested on: A498 renal
A549 NSCLC = tested on: A549 NSCLC
ACHN renal = tested on: ACHN renal
BT-549 breast = tested on: BT-549 breast
CCRF-CEM leukemia = tested on: CCRF-CEM leukemia
COLO 205 colon = tested on: COLO 205 colon
DU-145 prostate = tested on: DU-145 prostate
HCC-2998 colon = tested on: HCC-2998 colon
HCT-116 colon = tested on: HCT-116 colon
HCT-15 colon = tested on: HCT-15 colon
HL-60(TB) leukemia = tested on: HL-60(TB) leukemia
HOP-62 NSCLC = tested on: HOP-62 NSCLC
HOP-92 NSCLC = tested on: HOP-92 NSCLC
HS 578T breast = tested on: HS 578T breast
HT29 colon = tested on: HT29 colon
IGROV1 ovarian = tested on: IGROV1 ovarian
K-562 leukemia = tested on: K-562 leukemia
KM12 colon = tested on: KM12 colon
LOX IMVI melanoma = tested on: LOX IMVI melanoma
M14 melanoma = tested on: M14 melanoma
MALME-3M melanoma = tested on: MALME-3M melanoma
MCF7 breast = tested on: MCF7 breast
MDA-MB-231 breast = tested on: MDA-MB-231 breast
MDA-MB-435 = tested on: MDA-MB-435
MOLT-4 leukemia = tested on: MOLT-4 leukemia
NCI-H226 lung = tested on: NCI-H226 lung
NCI-H23 lung = tested on: NCI-H23 lung
NCI-H460 lung = tested on: NCI-H460 lung
NCI-H522 lung = tested on: NCI-H522 lung
NCI/ADR-RES ovarian = tested on: NCI/ADR-RES ovarian
OVCAR-3 ovarian = tested on: OVCAR-3 ovarian
OVCAR-4 ovarian = tested on: OVCAR-4 ovarian
OVCAR-5 ovarian = tested on: OVCAR-5 ovarian
OVCAR-8 ovarian = tested on: OVCAR-8 ovarian
PC-3 prostate = tested on: PC-3 prostate
RPMI-8226 leukemia = tested on: RPMI-8226 leukemia
RXF 393 renal = tested on: RXF 393 renal
SF-268 CNS = tested on: SF-268 CNS
SF-295 CNS = tested on: SF-295 CNS
SF-539 CNS = tested on: SF-539 CNS
SK-MEL-2 melanoma = tested on: SK-MEL-2 melanoma
SK-MEL-28 melanoma = tested on: SK-MEL-28 melanoma
SK-MEL-5 melanoma = tested on: SK-MEL-5 melanoma
SK-OV-3 ovarian = tested on: SK-OV-3 ovarian
SN12C renal = tested on: SN12C renal
SNB-19 CNS = tested on: SNB-19 CNS
SNB-75 CNS = tested on: SNB-75 CNS
SR leukemia = tested on: SR leukemia
SW-620 colon = tested on: SW-620 colon
T-47D breast = tested on: T-47D breast
TK-10 renal = tested on: TK-10 renal
U251 CNS = tested on: U251 CNS
UACC-257 melanoma = tested on: UACC-257 melanoma
UACC-62 melanoma = tested on: UACC-62 melanoma
UO-31 renal = tested on: UO-31 renal

COc1ccc(/C=C2\CN(Cc3cn(CCCNc4ccnc5cc(Cl)ccc45)nn3)C/C(=C\c3ccc(OC)c(OC)c3)C2=O)cc1OC
GI50 (786-0 renal): 1950 nM | TGI (786-0 renal): 4390 nM | GI50 (A498 renal): 1170 nM | TGI (A498 renal): 2580 nM | GI50 (A549 NSCLC): 1710 nM | TGI (A549 NSCLC): 4110 nM | GI50 (ACHN renal): 1640 nM | TGI (ACHN renal): 3110 nM | GI50 (BT-549 breast): 1810 nM | TGI (BT-549 breast): 3790 nM | GI50 (CCRF-CEM leukemia): 571 nM | TGI (CCRF-CEM leukemia): 8650 nM | GI50 (COLO 205 colon): 1030 nM | TGI (COLO 205 colon): 2390 nM | GI50 (DU-145 prostate): 1100 nM | TGI (DU-145 prostate): 2310 nM | GI50 (HCC-2998 colon): 1410 nM | TGI (HCC-2998 colon): 2900 nM | GI50 (HCT-116 colon): 577 nM | TGI (HCT-116 colon): 2100 nM | GI50 (HCT-15 colon): 2030 nM | TGI (HCT-15 colon): 5020 nM | GI50 (HL-60(TB) leukemia): 685 nM | TGI (HL-60(TB) leukemia): 4030 nM | GI50 (HOP-62 NSCLC): 2420 nM | TGI (HOP-62 NSCLC): 4540 nM | GI50 (HOP-92 NSCLC): 1450 nM | TGI (HOP-92 NSCLC): 5190 nM | GI50 (HS 578T breast): 1990 nM | TGI (HS 578T breast): 9970 nM | GI50 (HT29 colon): 663 nM | TGI (HT29 colon): 2380 nM | GI50 (IGROV1 ovarian): 1050 nM | TGI (IGROV1 ovarian): 2410 nM | GI50 (K-562 leukemia): 459 nM | TGI (K-562 leukemia): 3640 nM | GI50 (KM12 colon): 304 nM | TGI (KM12 colon): 1070 nM | GI50 (LOX IMVI melanoma): 1080 nM | TGI (LOX IMVI melanoma): 2430 nM | GI50 (M14 melanoma): 2590 nM | TGI (M14 melanoma): 9680 nM | GI50 (MALME-3M melanoma): 1750 nM | TGI (MALME-3M melanoma): 3540 nM | GI50 (MCF7 breast): 503 nM | TGI (MCF7 breast): 2450 nM | GI50 (MDA-MB-231 breast): 1700 nM | TGI (MDA-MB-231 breast): 3480 nM | GI50 (MDA-MB-435): 1120 nM | TGI (MDA-MB-435): 5320 nM | GI50 (MOLT-4 leukemia): 1390 nM | TGI (MOLT-4 leukemia): 6270 nM | GI50 (NCI-H226 lung): 1970 nM | TGI (NCI-H226 lung): 4740 nM | GI50 (NCI-H23 lung): 2360 nM | TGI (NCI-H23 lung): 7260 nM | GI50 (NCI-H460 lung): 806 nM | TGI (NCI-H460 lung): 2120 nM | GI50 (NCI-H522 lung): 1320 nM | TGI (NCI-H522 lung): 3060 nM | GI50 (NCI/ADR-RES ovarian): > 100000 nM | TGI (NCI/ADR-RES ovarian): > 100000 nM | GI50 (OVCAR-3 ovarian): 463 nM | TGI (OVCAR-3 ovarian): 1680 nM | GI50 (OVCAR-4 ovarian): 1110 nM | TGI (OVCAR-4 ovarian): 18100 nM | GI50 (OVCAR-5 ovarian): 2680 nM | TGI (OVCAR-5 ovarian): 6420 nM | GI50 (OVCAR-8 ovarian): 810 nM | TGI (OVCAR-8 ovarian): 15400 nM | GI50 (PC-3 prostate): 843 nM | TGI (PC-3 prostate): 3220 nM | GI50 (RPMI-8226 leukemia): 1460 nM | TGI (RPMI-8226 leukemia): 5650 nM | GI50 (RXF 393 renal): 1560 nM | TGI (RXF 393 renal): 3010 nM | GI50 (SF-268 CNS): 743 nM | TGI (SF-268 CNS): 3090 nM | GI50 (SF-295 CNS): 2080 nM | TGI (SF-295 CNS): 4100 nM | GI50 (SF-539 CNS): 1990 nM | TGI (SF-539 CNS): 4760 nM | GI50 (SK-MEL-2 melanoma): 2320 nM | TGI (SK-MEL-2 melanoma): 6840 nM | GI50 (SK-MEL-28 melanoma): 2420 nM | TGI (SK-MEL-28 melanoma): 8700 nM | GI50 (SK-MEL-5 melanoma): 2710 nM | TGI (SK-MEL-5 melanoma): 10200 nM | GI50 (SK-OV-3 ovarian): 2450 nM | TGI (SK-OV-3 ovarian): 11100 nM | GI50 (SN12C renal): 1330 nM | TGI (SN12C renal): 3120 nM | GI50 (SNB-19 CNS): 1850 nM | TGI (SNB-19 CNS): 7620 nM | GI50 (SNB-75 CNS): 1710 nM | TGI (SNB-75 CNS): 6090 nM | GI50 (SR leukemia): 382 nM | TGI (SR leukemia): 12000 nM | GI50 (SW-620 colon): 455 nM | TGI (SW-620 colon): 1750 nM | GI50 (T-47D breast): 2420 nM | TGI (T-47D breast): 9420 nM | GI50 (TK-10 renal): 2950 nM | TGI (TK-10 renal): 7920 nM | GI50 (U251 CNS): 1190 nM | TGI (U251 CNS): 3880 nM | GI50 (UACC-257 melanoma): 2240 nM | TGI (UACC-257 melanoma): 12000 nM | GI50 (UACC-62 melanoma): 1490 nM | TGI (UACC-62 melanoma): 3160 nM | GI50 (UO-31 renal): 1530 nM | TGI (UO-31 renal): 2880 nM
